EC50 data for 50 molecules are collected here from patent US8354403B2, “Pyrrolidine derived beta 3 adrenergic receptor agonists” (Merck Sharp & Dohme Corp., priority 2009, dated 2013).

The target in one test is T1, human β3 adrenergic receptor (Homo sapiens, UniProt P13945).
T1 construct: expressed in transfected cells; host or cells: Chinese hamster ovary (CHO) cells, stably transfected
T1 sequence (P13945 whole entry): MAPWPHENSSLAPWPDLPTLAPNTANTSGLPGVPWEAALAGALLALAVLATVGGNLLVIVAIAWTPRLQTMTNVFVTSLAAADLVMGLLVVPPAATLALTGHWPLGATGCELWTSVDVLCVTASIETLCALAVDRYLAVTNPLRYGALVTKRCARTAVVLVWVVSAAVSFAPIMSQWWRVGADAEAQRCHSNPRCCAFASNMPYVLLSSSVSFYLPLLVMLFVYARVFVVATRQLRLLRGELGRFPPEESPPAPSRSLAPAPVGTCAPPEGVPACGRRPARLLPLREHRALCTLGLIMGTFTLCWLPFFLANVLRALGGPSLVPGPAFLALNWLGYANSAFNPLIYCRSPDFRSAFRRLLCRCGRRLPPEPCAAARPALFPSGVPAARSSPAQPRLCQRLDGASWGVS
Put plainly: Beta-3 agonist in vitro functional assay: cAMP production (LANCE TR-FRET) in CHO cells stably transfected with the cloned β3 receptor. Particulars: Table 4; cAMP, CHO cells; read-out: Human β3 agonist functional activity. The format is cell-based. The protocol: Chinese hamster ovary (CHO) cells, stably transfected with the cloned β-adrenergic receptor (β1, β2 or β3) are harvested after 3 days of subculturing. Harvesting of cells is done with Enzyme-free Dissociation Media (Specialty Media). Cells are then counted and resuspended in assay buffer (Hank's Balanced salt solution supplemented with 5 mM HEPES, […]) containing a phosphodiesterase inhibitor (IBMX, 0.6 mM). The reaction is initiated by mixing 6,000 cells in 6 μL with 6 μL Alexa Fluor labeled cAMP antibody (LANCE™ kit) which is then added to an assay well containing 12 μL of compound (diluted in assay buffer to 2× final concentration). The reaction proceeds for 30 minutes at RT and is terminated by the addition of 24 ul detection buffer (LANCE™ kit). The assay plate is then incubated for 1 h at RT and time-resolved fluorescence measured on a Perkin Elmer Envision reader or equivalent. The unknown cAMP level is determined by comparing fluorescence levels to a cAMP standard curve.
The non-selective, full agonist β-adrenergic ligand isoproterenol is used at all three receptors to determine maximal stimulation. […] Data are analyzed using Microsoft Excel and Graphpad Prism or an internally developed data analysis software package.
Regarding `CO[C@@H]1CCN(C(=O)c2ccc(C[C@@H]3CC[C@H]([C@H](O)c4ccccc4)N3)cc2)C1` [Example 7], the EC50 lay in the range of 100 to 999 nM.
Turning to `O=C(c1ccc(C[C@@H]2CC[C@H]([C@H](O)c3ccccc3)N2)cc1)N1CCCC2(CCc3cc(F)ccc3O2)C1` (some centres unmarked) [Example 44], the EC50 lay within 100 to 999 nM.
The same measure, in the same setting: next, `Cc1noc(C2CCCCN2C(=O)c2ccc(C[C@@H]3CC[C@H]([C@H](O)c4ccccc4)N3)cc2)n1` (some centres unmarked) [Example 49]: 999 to 3000 nM.

The same test, now with this note: Table 5; cAMP, CHO cells; read-out: Human β3 agonist functional activity.
Take `O=C(NC1CCN(C(=O)c2ccc(C[C@@H]3CC[C@H]([C@H](O)c4ccccc4)N3)cc2)CC1)OCc1ccccc1` [Example 68]: the EC50 was 10 to 99.9 nM.
On the same count and under the same terms, next, `O=C(c1ccc(C[C@@H]2CC[C@H]([C@H](O)c3ccccc3)N2)cc1)N1CCC(n2cnnc2)CC1` [Example 91]: 100 to 999 nM; `O=C(c1ccc(C[C@@H]2CC[C@H]([C@H](O)c3ccccc3)N2)cc1)N1CCC(Cn2cnccc2=O)CC1` [Example 149]: 100 to 999 nM.
As to `O=C(c1ccc(C[C@@H]2CC[C@H]([C@H](O)c3ccccc3)N2)cc1)N1CCC(OCc2ccccn2)CC1` [Example 163], the EC50 lay within 100 to 999 nM.
The same measure, in the same setting: next, `Nc1nnc(C2CCN(C(=O)c3ccc(C[C@@H]4CC[C@H]([C@H](O)c5ccccc5)N4)cc3)CC2)o1` [Example 99]: 10 to 99.9 nM; `O=C(c1ccc(C[C@@H]2CC[C@H]([C@H](O)c3ccccc3)N2)cc1)N1CCC(S(=O)(=O)C2CCCC2)CC1` [Example 126]: 10 to 99.9 nM.

Staying with this test, now noted: Table 7; cAMP, CHO cells; ranges as given for Tables 6 and 7; read-out: Human β3 agonist functional activity.
Turning to `O=C(c1ncco1)C1C2CN(C(=O)c3ccc(C[C@@H]4CC[C@H]([C@H](O)c5ccccc5)N4)cc3)CC21` (some centres unmarked) [Example 234], the EC50 lay within 10 to 99.9 nM.

The test is the same for the next values; noted with them: Table 8; Beta-3 agonist in vitro functional assay; read-out: Human β3 agonist functional activity.
Take `O=C(c1ccc(C[C@@H]2CC[C@H]([C@H](O)c3ccccc3)N2)cc1)N1CCC(c2ccccc2)(c2nnn[nH]2)CC1` [Example 242]: the EC50 fell in the range of 10 to 99.9 nM.
On the same count and under the same terms, next, `O=C(c1ccc(C[C@@H]2CC[C@H]([C@H](O)c3ccccc3)N2)cc1)N1CCC2(CC1)OCC[S+]2[O-]` (some centres unmarked) [Example 304]: 100 to 999 nM; `O=C1CC2(CCN(C(=O)c3ccc(C[C@@H]4CC[C@H]([C@H](O)c5ccccc5)N4)cc3)CC2)Oc2ccccc21` [Example 323]: 10 to 99.9 nM; `O=C1OC2(CCN(C(=O)c3ccc(C[C@@H]4CC[C@H]([C@H](O)c5ccccc5)N4)cc3)CC2)c2ccncc21` [Example 285]: 10 to 99.9 nM.
On the same count and under the same terms, next, `O=C(c1ccc(C[C@@H]2CC[C@H]([C@H](O)c3ccccc3)N2)cc1)N1CCC2(CC1)C(=O)Oc1ccccc12` [Example 290]: 10 to 99.9 nM.
The same measure, in the same setting: next, `O=C1CC2(CCN(C(=O)c3ccc(C[C@@H]4CC[C@H]([C@H](O)c5ccccc5)N4)cc3)CC2)Sc2ccccc21` [Example 326]: 1 to 9.9 nM; `O=C1NC(=O)C2(CCN(C(=O)c3ccc(C[C@@H]4CC[C@H]([C@H](O)c5cccnc5)N4)cc3)CC2)N1` [Example 268]: 10 to 99.9 nM.
For the molecule `CC1(C)OCC2(CCN(C(=O)c3ccc(C[C@@H]4CC[C@H]([C@H](O)c5ccccc5)N4)cc3)CC2)C1O` (some centres unmarked) [Example 313], the EC50 lay within 100 to 999 nM.
Same read-out and setting: next, `O=C(c1ccc(C[C@@H]2CC[C@H]([C@H](O)c3ccccc3)N2)cc1)N1CCC2(CCc3cnoc32)CC1` [Example 322]: 10 to 99.9 nM; `O=C(c1ccc(C[C@@H]2CC[C@H]([C@H](O)c3ccccc3)N2)cc1)N1CCC2(CC1)NCNC2=O` [Example 258]: 10 to 99.9 nM; `O=C1OC2(CCN(C(=O)c3ccc(C[C@@H]4CC[C@H]([C@H](O)c5ccccc5)N4)cc3)CC2)c2ncccc21` [Example 287]: 10 to 99.9 nM.
Still for that read-out and setting: next, `O=C(c1ccc(C[C@@H]2CC[C@H]([C@H](O)c3ccccc3)N2)cc1)N1CCC2(CC1)NC(=O)N(Cc1ccccc1)C2=O` [Example 269]: 10 to 99.9 nM; `O=C(c1ccc(C[C@@H]2CC[C@H]([C@H](O)c3cccnc3)N2)cc1)N1CCC2(CCOC2=O)CC1` [Example 292]: 10 to 99.9 nM.

Staying with this test, now noted: Table 9; Beta-3 agonist in vitro functional assay; read-out: Human β3 agonist functional activity.
For `CC(C)C(c1ccccn1)N1CCN(C(=O)c2ccc(C[C@@H]3CC[C@H]([C@H](O)c4ccccc4)N3)cc2)CC1` (some centres unmarked) [Example 419], the EC50 lay in the range of 10 to 99.9 nM.
The same measure, in the same setting: the result for `O=C(c1ccc(C[C@@H]2CC[C@H]([C@H](O)c3ccccc3)N2)cc1)N1CCN(c2nccc(-c3ccccc3)n2)CC1` [Example 376] reads 10 to 99.9 nM.
On the same count and under the same terms, next, `COc1ccccc1CN1CCN(C(=O)c2ccc(C[C@@H]3CC[C@H]([C@H](O)c4ccccc4)N3)cc2)CC1` [Example 409]: 10 to 99.9 nM; `O=C(c1ccc(C[C@@H]2CC[C@H]([C@H](O)c3ccccc3)N2)cc1)N1CCN(Cc2ncccc2O)CC1` [Example 413]: 10 to 99.9 nM; `O=C(c1ccc(C[C@@H]2CC[C@H]([C@H](O)c3ccccc3)N2)cc1)N1CCN(c2ccc3c(c2)OCCO3)CC1` [Example 354]: 100 to 999 nM.
Same read-out and setting: next, `CC(=O)N1CCN(C(=O)c2ccc(C[C@@H]3CC[C@H]([C@H](O)c4ccccc4)N3)cc2)CC1` [Example 343]: 100 to 999 nM; `O=C(c1ccc(C[C@@H]2CC[C@H]([C@H](O)c3ccccc3)N2)cc1)N1CCN(Cc2noc3ccccc23)CC1` [Example 407]: 1 to 9.9 nM.
With `O=C(c1ccc(C[C@@H]2CC[C@H]([C@H](O)c3ccccc3)N2)cc1)N1CCN(Cc2cnccn2)CC1` [Example 426], the EC50 fell in the range of 10 to 99.9 nM.
On to `O=C(c1ccc(C[C@@H]2CC[C@H]([C@H](O)c3ccccc3)N2)cc1)N1CCN(Cc2n[nH]c3ccccc23)CC1` [Example 405], for which the EC50 was 1 to 9.9 nM.

The same test, now with this note: Table 10; Beta-3 agonist in vitro functional assay; read-out: Human β3 agonist functional activity.
Consider `CC(C(=O)N1CC=CCC1)N1CCN(C(=O)c2ccc(C[C@@H]3CC[C@H]([C@H](O)c4ccccc4)N3)cc2)CC1` (some centres unmarked) [Example 492], for which the EC50 is 10 to 99.9 nM.
The same measure, in the same setting: the result for `CC(C(=O)N1CCn2ccnc2C1)N1CCN(C(=O)c2ccc(C[C@@H]3CC[C@H]([C@H](O)c4ccccc4)N3)cc2)CC1` (some centres unmarked) [Example 502] reads 10 to 99.9 nM; that for `CC(C(=O)N1CCc2ccncc2C1)N1CCN(C(=O)c2ccc(C[C@@H]3CC[C@H]([C@H](O)c4ccccc4)N3)cc2)CC1` (some centres unmarked) [Example 506], 10 to 99.9 nM; that for `CC(C(=O)N1C[C@@H]2C[C@H]1CO2)N1CCN(C(=O)c2ccc(C[C@@H]3CC[C@H]([C@H](O)c4ccccc4)N3)cc2)CC1` (some centres unmarked) [Example 500], 10 to 99.9 nM.
Same read-out and setting: the result for `CC(C(=O)NC(C1CC1)C1CC1)N1CCN(C(=O)c2ccc(C[C@@H]3CC[C@H]([C@H](O)c4ccccc4)N3)cc2)CC1` (some centres unmarked) [Example 451] reads 10 to 99.9 nM; that for `CC(C(=O)N1CCc2oncc2C1)N1CCN(C(=O)c2ccc(C[C@@H]3CC[C@H]([C@H](O)c4ccccc4)N3)cc2)CC1` (some centres unmarked) [Example 503], 10 to 99.9 nM; that for `CC(C(=O)N(C1CC1)C1CC1)N1CCN(C(=O)c2ccc(C[C@@H]3CC[C@H]([C@H](O)c4ccccc4)N3)cc2)CC1` (some centres unmarked) [Example 522], 10 to 99.9 nM.
Same read-out and setting: next, `CC(C(=O)NCC(=O)N1CCCC1)N1CCN(C(=O)c2ccc(C[C@@H]3CC[C@H]([C@H](O)c4ccccc4)N3)cc2)CC1` (some centres unmarked) [Example 460]: 10 to 99.9 nM; `CC(C(=O)N1CCCCC12CC2)N1CCN(C(=O)c2ccc(C[C@@H]3CC[C@H]([C@H](O)c4ccccc4)N3)cc2)CC1` (some centres unmarked) [Example 493]: 10 to 99.9 nM; `CC(C(=O)N1CCC[C@@H]1C)N1CCN(C(=O)c2ccc(C[C@@H]3CC[C@H]([C@H](O)c4ccccc4)N3)cc2)CC1` (some centres unmarked) [Example 480]: 10 to 99.9 nM.

The test is the same for the next values; noted with them: Table 11; cAMP, CHO cells; read-out: Human β3 agonist functional activity.
Turning to `C[C@H](c1ccccn1)N1CC2CC1CN2C(=O)c1ccc(C[C@@H]2CC[C@H]([C@H](O)c3ccccc3)N2)cc1` (some centres unmarked) [Example 537], the EC50 was in the range of 100 to 999 nM.
As to `O=C1CN(C(=O)c2ccc(C[C@@H]3CC[C@H]([C@H](O)c4ccccc4)N3)cc2)CCN1Cc1ccccn1` [Example 545], the EC50 is 100 to 999 nM.
Still for that read-out and setting: the result for `O=C(c1ccc(C[C@@H]2CC[C@H]([C@H](O)c3ccccc3)N2)cc1)N1CCN2C(=O)CCC2C1` (some centres unmarked) [Example 550] reads 100 to 999 nM.

The same test, now with this note: Table 12; human β3 functional activity given as ranges; read-out: Human β3 agonist functional activity.
With `CCC1CC2(CCN(C(=O)c3ccc(CC4CCC(C(O)c5ccccc5)N4)cc3)CC2)C(=O)O1` (single isomer, unassigned) [Example 564], the EC50 lay in the range of 1 to 9.9 nM.
As for `CC(c1cccnn1)N1CCN(C(=O)c2ccc(CC3CCC(C(O)c4ccccc4)N3)cc2)CC1` (single isomer, unassigned) [Example 591], the EC50 is 10 to 99.9 nM.
Same read-out and setting: the result for `O=C(c1ccc(CC2CCC(C(O)c3ccccc3)N2)cc1)N1CCN(C(c2ccccn2)C2CC2)CC1` (single isomer, unassigned) [Example 589] reads 10 to 99.9 nM; that for `CC(c1ncccn1)N1CCN(C(=O)c2ccc(CC3CCC(C(O)c4ccccc4)N3)cc2)CC1` (single isomer, unassigned) [Example 596], 10 to 99.9 nM.

Still in this test, the particulars now being: given as a range; cAMP, CHO cells; read-out: human β3 functional activity.
For `O=C(c1ccc(C[C@@H]2CC[C@H]([C@H](O)c3ccccc3)N2)cc1)N1CC2CC(n3cccn3)CC2C1` (stereo partly drawn) [Example 1, (R)-phenyl[(2R,5S)-5-(4-{[5-(1H-pyrazol-1-yl)hexahydrocyclopenta[c]pyrrol-2(1H)-yl]carbonyl}benzyl)pyrrolidin-2-yl]methanol], the EC50 is 10 to 99.9 nM.
